{
  "source": "patent US11759464B2",
  "about": "“Gonadotropin-releasing hormone antagonist dosing regimens for treating uterine fibroids and reducing menstrual blood loss” (ObsEva S.A., priority 2017, dated 2023)",
  "assay_type_in_all_cases": "in vivo",
  "key": {"[1]": {"tested_on": "healthy human female subjects", "test": "serum β17-estradiol (E2) concentration during 42-day once-daily treatment", "experimental": "To assess the effects of compound (II) on serum β17-estradiol concentration and menstrual blood loss, a total of 75 healthy human female subjects were divided into five treatment groups, as described in Table 1, below. The subjects were screened for a period of four weeks prior to the commencement of treatment with compound (II). At the conclusion of the four week screening period, the subjects in each treatment arm were administered an equivalent dosage of norethindrone acetate of 5 mg×3 times daily. This 15 mg/day dosage was administered for a total of 11 days so as to allow synchronization of menses among the subjects. The subjects were subsequently not treated for the ensuing 4 days. Following this withdrawal period, the subjects were treated with compound (II), with or without add-back therapy, once daily for 42 days according to the dosages set forth in Table 1. Following the 42-day treatment cycle, the subjects were further monitored for a period of 13 days. As used herein, the add-back regime of 1.0 mg/day β17-estradiol and 0.5 mg/day norethindrone acetate is referred to as the “high-dose” or […] add-back dosage, while the add-back regime of 0.5 mg/day β17-estradiol and 0.1 mg/day norethindrone acetate was referred to as the “low-dose” or “LD” add-back dosage. This labeling convention is used throughout this Example and is additionally referred to in the Figures."}, "[2]": {"tested_on": "healthy human female subjects", "test": "biomarkers of bone mineral density (creatinine-normalized deoxypyridinoline)", "conditions": "100 mg/day + 1.0 mg/day E2 and 0.5 mg/day norethindrone acetate, urine (FIG. 25)", "experimental": "To assess the effects of compound (II) on serum β17-estradiol concentration and menstrual blood loss, a total of 75 healthy human female subjects were divided into five treatment groups, as described in Table 1, below. The subjects were screened for a period of four weeks prior to the commencement of treatment with compound (II). At the conclusion of the four week screening period, the subjects in each treatment arm were administered an equivalent dosage of norethindrone acetate of 5 mg×3 times daily. This 15 mg/day dosage was administered for a total of 11 days so as to allow synchronization of menses among the subjects. The subjects were subsequently not treated for the ensuing 4 days. Following this withdrawal period, the subjects were treated with compound (II), with or without add-back therapy, once daily for 42 days according to the dosages set forth in Table 1. Following the 42-day treatment cycle, the subjects were further monitored for a period of 13 days. In addition to assessing the ability of compound (II) to modulate serum E2 and progesterone levels and to curtail menstrual bleeding, compound (II) was evaluated for its effects on biomarkers of bone mineral density (FIGS. 25-29). These markers include creatinine-normalized deoxypyridinoline (DPD), which is excreted in larger quantities when bone resorption is increased."}, "[3]": {"tested_on": "healthy human female subjects", "test": "menstrual bleeding pattern (amenorrhea) during treatment", "conditions": "for Amenorrhea (no bleeding), subjects / Amenorrhea + spotting only, subjects: last 4 weeks of treatment", "experimental": "To assess the effects of compound (II) on serum β17-estradiol concentration and menstrual blood loss, a total of 75 healthy human female subjects were divided into five treatment groups, as described in Table 1, below. The subjects were screened for a period of four weeks prior to the commencement of treatment with compound (II). At the conclusion of the four week screening period, the subjects in each treatment arm were administered an equivalent dosage of norethindrone acetate of 5 mg×3 times daily. This 15 mg/day dosage was administered for a total of 11 days so as to allow synchronization of menses among the subjects. The subjects were subsequently not treated for the ensuing 4 days. Following this withdrawal period, the subjects were treated with compound (II), with or without add-back therapy, once daily for 42 days according to the dosages set forth in Table 1. Following the 42-day treatment cycle, the subjects were further monitored for a period of 13 days. To assess the effects of compound (II) on menstrual blood loss, the volume of menstrual blood lost by each subject was evaluated over the course of the entirety of the study, including the 11-day screening period, 4-day withdrawal period, 42-treatment period, and 13-day post-treatment evaluation period. Assessment of menstrual blood loss was conducted using an electronic diary method, as subjects recorded daily whether their bleeding for each day was heavy, moderate, or light spotting."}, "[4]": {"conditions": "100 mg daily + add-back E2/NETA 0.5 mg/0.1 mg"}, "[5]": {"conditions": "100 mg daily + add-back E2/NETA 0.5 mg/0.1 mg, listed as compound (II)"}, "[6]": {"conditions": "100 mg daily + add-back E2/NETA 1 mg/0.5 mg"}, "[7]": {"conditions": "100 mg daily + add-back E2/NETA 1 mg/0.5 mg, listed as compound (II)"}, "[8]": {"conditions": "100 mg daily, no add-back, listed as compound (II)"}, "[9]": {"conditions": "200 mg daily + add-back E2/NETA 1 mg/0.5 mg"}, "[10]": {"conditions": "200 mg daily + add-back E2/NETA 1 mg/0.5 mg, listed as compound (II)"}, "[11]": {"conditions": "200 mg daily, no add-back, listed as compound (II)"}},
  "data": [
    {"smiles": "COc1cc(F)c(-n2c(=O)[nH]c3csc(C(=O)O)c3c2=O)cc1OCc1c(OC)ccc(F)c1F", "note": "[Compound (II), choline 3-[2-fluoro-5-(2,3-difluoro-6-methoxybenzyloxy)-4-methoxyphenyl]-2,4-dioxo-1,2,3,4-tetrahydrothieno [3,4d]pyrimidine-5-carboxylate]", "values": [
      {"measurement": "Median E2 level, E2 Week 1", "setting": "[1]; 100 mg daily + add-back E2/NETA 0.5 mg/0.1 mg, n = 14, after week 1", "value": 25, "unit": "pg/mL"},
      {"measurement": "Median E2 level, E2 Week 6", "setting": "[1]; 100 mg daily + add-back E2/NETA 0.5 mg/0.1 mg, n = 14, after week 6", "value": 40, "unit": "pg/mL"},
      {"measurement": "Median E2 level, E2 Week 1", "setting": "[1]; 100 mg daily + add-back E2/NETA 1 mg/0.5 mg, n = 15, after week 1", "value": 35, "unit": "pg/mL"},
      {"measurement": "Median E2 level, E2 Week 6", "setting": "[1]; 100 mg daily + add-back E2/NETA 1 mg/0.5 mg, n = 15, after week 6", "value": 34, "unit": "pg/mL"},
      {"measurement": "Median E2 level, E2 Week 1", "setting": "[1]; 100 mg daily, no add-back, n = 14, after week 1", "value": 12, "unit": "pg/mL"},
      {"measurement": "Median E2 level, E2 Week 6", "setting": "[1]; 100 mg daily, no add-back, n = 14, after week 6", "value": 18, "unit": "pg/mL"},
      {"measurement": "E2 levels, majority of subjects", "setting": "[1]; 100 mg/day without add-back, each of days 8, 15 and 22", "value": "less than 20 μg/ml"},
      {"measurement": "Median E2 level, E2 Week 1", "setting": "[1]; 200 mg daily + add-back E2/NETA 1 mg/0.5 mg, n = 15, after week 1", "value": 27, "unit": "pg/mL"},
      {"measurement": "Median E2 level, E2 Week 6", "setting": "[1]; 200 mg daily + add-back E2/NETA 1 mg/0.5 mg, n = 15, after week 6", "value": 25, "unit": "pg/mL"},
      {"measurement": "Median E2 level, E2 Week 1", "setting": "[1]; 200 mg daily, no add-back, n = 14, after week 1", "value": 5, "unit": "pg/mL"},
      {"measurement": "Median E2 level, E2 Week 6", "setting": "[1]; 200 mg daily, no add-back, n = 14, after week 6", "value": 3, "unit": "pg/mL"},
      {"measurement": "serum E2 concentrations, all subjects", "setting": "[1]; 200 mg/day stand-alone arm, each of days 8, 15, 22, 29 and 36", "value": "less than 20 μg/ml"},
      {"measurement": "effect on median serum E2 levels", "setting": "[1]; 100 or 200 mg/day, 42-day treatment cycle (FIG. 1)", "value": "reduced in a dose-dependent manner"},
      {"measurement": "creatinine-normalized deoxypyridinoline (DPD), comparison among arms", "setting": "[2]", "value": "smallest increase"},
      {"measurement": "Amenorrhea (no bleeding), subjects", "setting": "[3]; [4]", "value": 21, "unit": "%"},
      {"measurement": "Amenorrhea + spotting only, subjects", "setting": "[3]; [4]", "value": 57, "unit": "%"},
      {"measurement": "Amenorrhea (no bleeding), subjects", "setting": "[3]; [5]", "value": "at least 21%"},
      {"measurement": "Amenorrhea + spotting only, subjects", "setting": "[3]; [5]", "value": "at least 57%"},
      {"measurement": "Amenorrhea (no bleeding), subjects", "setting": "[3]; [6]", "value": 53, "unit": "%"},
      {"measurement": "Amenorrhea + spotting only, subjects", "setting": "[3]; [6]", "value": 93, "unit": "%"},
      {"measurement": "Amenorrhea (no bleeding), subjects", "setting": "[3]; [7]", "value": "at least 53%"},
      {"measurement": "Amenorrhea + spotting only, subjects", "setting": "[3]; [7]", "value": "at least 93%"},
      {"measurement": "Amenorrhea (no bleeding), subjects", "setting": "[3]; 100 mg daily, no add-back", "value": 86, "unit": "%"},
      {"measurement": "Amenorrhea + spotting only, subjects", "setting": "[3]; 100 mg daily, no add-back", "value": 93, "unit": "%"},
      {"measurement": "Amenorrhea (no bleeding), subjects", "setting": "[3]; [8]", "value": "at least 86%"},
      {"measurement": "Amenorrhea + spotting only, subjects", "setting": "[3]; [8]", "value": "at least 93%"},
      {"measurement": "Amenorrhea (no bleeding), subjects", "setting": "[3]; [9]", "value": 33, "unit": "%"},
      {"measurement": "Amenorrhea + spotting only, subjects", "setting": "[3]; [9]", "value": 60, "unit": "%"},
      {"measurement": "Amenorrhea (no bleeding), subjects", "setting": "[3]; [10]", "value": "at least 33%"},
      {"measurement": "Amenorrhea + spotting only, subjects", "setting": "[3]; [10]", "value": "at least 60%"},
      {"measurement": "Amenorrhea (no bleeding), subjects", "setting": "[3]; 200 mg daily, no add-back", "value": 87, "unit": "%"},
      {"measurement": "Amenorrhea + spotting only, subjects", "setting": "[3]; 200 mg daily, no add-back", "value": 100, "unit": "%"},
      {"measurement": "Amenorrhea (no bleeding), subjects", "setting": "[3]; [11]", "value": "at least 87%"},
      {"measurement": "Amenorrhea + spotting only, subjects", "setting": "[3]; [11]", "value": 100, "unit": "%"},
      {"measurement": "effect on menstrual bleeding", "setting": "[3]; 100 or 200 mg/day with or without add-back (FIGS. 20-24)", "value": "capable of inducing sustained amenorrhea"}
    ]}
  ]
}
